Among the data in the Deep4Chem optical property database are emission maximum values, retold here.

The data set in a line: solvent given as SMILES.

Structures are written as SMILES.

As to `CCCCC(CC)Cn1c2cc(C#N)ccc2c2ccc(C#Cc3ccc4ccc5cccc6ccc3c4c56)cc21` (configuration not stated), the emission maximum (in ClCCl) is recorded as 420 nm.

With `COc1ccc(-c2oc3cccc4c5c(-c6ccc(OC)c(OC)c6)c(=N)oc6cccc(c2c34)c65)cc1OC`, the emission maximum (in ClC(Cl)Cl) is 510 nm.

For the compound `CCCCCCCCOc1ccc(-c2c3c4n(c(-c5ccc(OCCCCCCCC)cc5)c3c3n2[B-](F)(F)[n+]2c(ccc5cc(C(C)(C)C)ccc52)C=3C#N)[B-](F)(F)[n+]2c(ccc3cc(C(C)(C)C)ccc32)C=4C#N)cc1`, the emission maximum (in ClC(Cl)Cl) turned out to be 773 nm.

Regarding `CCCCCCCCc1ccc(-n2c3c4ccccc4nc(-c4ccc(C#N)cc4)c3c3c2c2c(-c4ccc(C#N)cc4)nc4ccccc4c2n3-c2ccc(CCCCCCCC)cc2)cc1`, the emission maximum (in ClC(Cl)Cl) is listed as 510 nm.

Under “in C1CCOC1”, `F[Si-](F)(c1c2ccccc2cc2ccccc12)(c1c2ccccc2cc2ccccc12)c1c2ccccc2cc2ccccc12` had an emission maximum of 396 nm.

With `COc1ccc(-c2cc(-c3ccccc3)nn2C)cc1`, the emission maximum (in ClCCl) amounted to 333 nm.

On to `COc1ccc(-c2cc(-c3ccc(N(C)C)cc3)nc(-c3ccccc3)n2)cc1`, for which, under “in ClC(Cl)Cl”, the emission maximum is listed as 453 nm.

For the compound `CN1/C(=C/C=C(/C=C/c2sc3ccccc3[n+]2C)c2ccc(F)cc2)Sc2ccccc21`, the emission maximum is 674 nm (in CCO), 674 nm (in CO), 681 nm (in CS(C)=O) and 669 nm (in O).

Turning to `Cc1ccc(C2=C3C=C4C(=[N+]3[B-](F)(F)n3c2cc2c3-c3ccccc3C23c2ccccc2-c2ccccc23)c2ccccc2C42c3ccccc3-c3ccccc32)cc1`, under “in C1CCOC1”, the emission maximum was 642 nm.

For `Cc1ccc(C(=O)c2c(C)c3ccc4cccc5c6cccc7ccc2c(c76)c3c45)cc1`, for the setting “in ClCCl”, the emission maximum came to 450 nm.

`COc1cc2c(cc1-c1ccc(Cl)cc1)Cc1c3c(c4c(c1-2)-c1cc(OC)c(-c2ccc(Cl)cc2)cc1C4)C(=O)N(CCC(C)C)C3=O` gave an emission maximum (in C1CCOC1) of 466 nm.

`COc1ccc(-c2cc(/C=C/c3ccc(N(c4ccccc4)c4ccccc4)cc3)c(C#N)c(N3CCCCC3)c2)cc1` gave an emission maximum (in CS(C)=O) of 520 nm.

In turn, `CN(C)c1ccc(C2=[N+]3C(=Nc4c(-c5ccccc5)cc(-c5ccc(N(C)C)cc5)n4[B-]3(F)F)C(c3ccccc3)=C2)cc1` yielded an emission maximum (in ClC(Cl)Cl) of 823 nm.

In turn, `C[Si](C)(C)c1ccc(-c2ccc(-c3ccc(-c4ccc(-c5ccc([Si](C)(C)C)s5)cc4)c4nsnc34)cc2)s1` came in with an emission maximum (in C1CCOC1) of 540 nm.

Consider `CC1=CC(C)=[N+]2C1=C(c1c3ccccc3cc3ccccc13)c1c(C)cc(C)n1[B-]2(F)F`, for which the emission maximum came out at 512 nm (in CC#N); 515 nm (in CCCCCC); 513 nm (in CCO); 518 nm (in CN(C)C=O); 521 nm (in Cc1ccccc1); 517 nm (in ClCCl).

`CCc1ccc(-n2c3ccccc3c3cc4c(cc32)c2ccccc2n4-c2ccc(CC)s2)s1` returned an emission maximum (in ClC(Cl)Cl) of 405 nm.

In the case of `CC1(C)CC(NCc2ccc3ccc4cccc5ccc2c3c45)CC(C)(C)N1`, the emission maximum reads like this: (in C1CCCCC1) 375 nm; (in CC#N) 375 nm; (in CO) 375 nm; (in ClC(Cl)Cl) 396 nm.

In the case of `CC(=O)Nc1ccc2ccc3cccc4ccc1c2c34`, the emission maximum reads like this: (in CC#N) 386 nm; (in CCCCOCCCC) 385 nm; (in CO) 383 nm.

Turning to `COc1ccc2n1[B-](F)(F)[N+]1=C(SC#N)C=CC1=C2c1ccccc1`, the emission maximum (in CC#N) was 527 nm; the emission maximum (in CCCCCC) is reported as 532 nm; the emission maximum (in CCOC(C)=O) turned out to be 529 nm; the emission maximum (in CO) stood at 526 nm; the emission maximum (in ClCCl) was determined as 531 nm.

In the case of `CCOC(=O)C1CC(c2c(C#N)c(C)nn2-c2ccccc2)=CN1c1ccc(Br)cc1` (configuration not stated), the emission maximum by setting is: (in C1CCOC1) 480 nm; (in C1COCCO1) 480 nm; (in CC#N) 488 nm; (in CCCCCCC) 455 nm; (in CCO) 490 nm; (in O) 495 nm. The emission maximum (in OCC(O)CO) came out at 492 nm and the emission maximum (in OCCO) stood at 495 nm.

Where the note is “in ClCCl”, `CCCCCCOc1cc(/C=C/c2cc(OCCCCCC)c(/C=C/c3cc(OCCCCCC)c(C=O)cc3OCCCCCC)cc2OCCCCCC)c(OCCCCCC)cc1C=O` yielded an emission maximum of 521 nm.

In the case of `COC(=O)C1=C(C(=O)OC)C2(c3ccccc3-c3c(Br)cc(Br)cc32)C2(/C=C/c3ccccc3)c3cc(OC)c(OC)cc3CCN12` (configuration not stated), where the note is “in ClCCl”, the emission maximum was found to be 491 nm.

Turning to `CCN(CC)c1ccc2cc(C#N)/c(=N\C(=O)c3ccco3)oc2c1`, the emission maximum came out at 470 nm (in CCO) and 460 nm (in ClCCl).

The compound `CC(C)(C)c1ccc2oc3nc4oc5cc(-n6c7ccccc7c7ccccc76)ccc5c4cc3c2c1` registered an emission maximum (in ClC(Cl)Cl) of 396 nm.

`FC(F)(F)C(F)(F)C(F)(F)c1nc2c(-c3ccsc3)cc3c4cc(-c5ccsc5)c5nc(C(F)(F)C(F)(F)C(F)(F)F)nc6c(-c7ccsc7)cc(c7cc(-c8ccsc8)c(n1)c2c37)c4c56` displayed an emission maximum (in C1CCOC1) of 574 nm.

With `N#Cc1ccc(-c2nc(-c3ccccc3)c3ccccn23)cc1`, the emission maximum was determined as 444 nm (in C1CCCCC1); 453 nm (in CC#N); 487 nm (in CO); 477 nm (in ClCCl); 470 nm (in O).

`COc1ccc(C(=O)OCc2ccc3c4cccc5cccc(c6cccc2c63)c54)cc1` came in with an emission maximum (in CCO) of 447 nm.

On to `F[Si-](F)(c1ccccc1)(c1ccccc1)c1cccc2ccccc12`, for which, for the setting “in C1CCOC1”, the emission maximum is recorded as 338 nm.

On to `CC[N+]1(CC)CN2C(=N1)C(C(=O)O)=Cc1c2ccc2ccccc12`, for which the emission maximum (in O) came out at 487 nm.

As for `CCCCN(CCCC)c1ccc2c#cc3cc4c#cc5ccc(C(F)(F)F)cc5c#cc#cc5cc(N(CCCC)CCCC)ccc5c#cc4cc3c#cc3ccc(C(F)(F)F)cc3c#cc#cc2c1`, the emission maximum reads like this: (in ClCCl) 555 nm; (in c1ccccc1) 521 nm.

For `COc1ccc2cc(C#N)c3ccc4ccccc4c3c2c1`, under “in ClC(Cl)Cl”, the emission maximum is reported as 415 nm.

With `O=C1O[B-]2(OC1=O)OC(c1ccccc1)=CC(c1ccc3ccccc3c1)=[O+]2`, the emission maximum is on record as 555 nm (in CC#N) and 451 nm (in ClC(Cl)(Cl)Cl).

Turning to `CC1=[N+]2C(=C(c3ccc(C(=C(c4ccccc4)c4ccccc4)c4ccccc4)cc3)c3ccc(/C=C/c4ccc(C(=C(c5ccccc5)c5ccccc5)c5ccccc5)cc4)n3[B-]2(F)F)C=C1`, the emission maximum (in C1CCOC1) turned out to be 612 nm.

`COC(=O)c1c(-c2cc3ccccc3oc2=O)nn(-c2ccc(Br)cc2)c1C(=O)OC` came in with an emission maximum (in ClCCl) of 401 nm.

Turning to `CCOC(=O)CCCCCn1c2ccc(F)cc2c(=O)c2cc3c(cc21)c(=O)c1cc(F)ccc1n3CCCCCC(=O)OCC`, the emission maximum (in CO) was found to be 566 nm.

With `CC1(C)c2ccccc2-n2c(-c3ccc(N4c5ccccc5Oc5ccccc54)cc3)nc3cccc1c32`, the emission maximum is, setting by setting: (in Cc1ccccc1) 502 nm; (in O=P(c1ccccc1)(c1ccccc1)c1ccccc1Oc1ccccc1P(=O)(c1ccccc1)c1ccccc1) 485 nm.

The compound `CCCCC(CC)CN1C(=O)c2cc(Oc3ccc(OC)cc3)c3c4c(Oc5ccc(C(C)(C)C)cc5)cc5c6c(cc(Oc7ccc(C(C)(C)C)cc7)c(c7c(Oc8ccc(OC)cc8)cc(c2c37)C1=O)c64)C(=O)N(c1c(C(C)C)cccc1C(C)C)C5=O` (configuration not stated) showed an emission maximum (in Cc1ccccc1) of 608 nm.

Where the note is “in ClCCl”, `CC(C)(C)c1ccc2c3ccccc3c3cncnc3c2c1` gave an emission maximum of 376 nm.

Where the note is “in CC#N”, `C=CC(=O)Oc1ccc2cc(C=C)c(=O)oc2c1` displayed an emission maximum of 430 nm.

For `CCCC1(CCC)c2cc(-c3ccc(C(C)(C)C)cc3)ccc2-c2ccc(-c3ccc4c(c3)C(CCC)(CCC)c3cc(-c5ccc(C(C)(C)C)cc5)ccc3-4)cc21`, the emission maximum (in C1CCCCC1) was 395 nm.

For the compound `F[B-]1(F)n2c(ccc2-c2ccccc2)C(c2ccc(I)cc2)=C2C=CC(c3ccccc3)=[N+]21`, for the setting “in ClC(Cl)Cl”, the emission maximum was found to be 588 nm.

Consider `CCCCC(CC)Cn1c2cc(C#N)ccc2c2ccc(C#Cc3ccc4ccc5c(C#Cc6ccc7c8ccc(C#N)cc8n(CC(CC)CCCC)c7c6)ccc6ccc3c4c65)cc21` (configuration not stated), for which the emission maximum (in ClCCl) was 400 nm.

Where the note is “in ClCCl”, `CCCCC(CC)COc1ccc2nc(-c3ccc(-c4cccs4)s3)sc2c1` (configuration not stated) gave an emission maximum of 438 nm.

Regarding `COc1ccc2c(=O)c3c([nH]c2c1)-c1cc(Cl)ccc1NC3(C)C`, the emission maximum (in C1CCOC1) turned out to be 489 nm; the emission maximum (in CC#N) is given as 512 nm; the emission maximum (in CCCCO) is 525 nm; the emission maximum (in CCCO) was found to be 525 nm; the emission maximum (in CCO) turned out to be 525 nm; the emission maximum (in CCOC(C)=O) is 497 nm. Also, the emission maximum by setting is: (in CN(C)C=O) 509 nm; (in CO) 532 nm; (in CS(C)=O) 511 nm; (in Cc1ccccc1) 477 nm; (in ClC(Cl)(Cl)Cl) 469 nm; (in ClCCl) 491 nm. Also, the emission maximum reads like this: (in O) 555 nm; (in c1ccccc1) 478 nm.

With `O=Cc1cc(N2CCCCC2)c2ccc3c(N4CCCCC4)cc(N4CCCCC4)c4ccc1c2c43`, the emission maximum reads like this: (in C1COCCO1) 557 nm; (in CC#N) 596 nm; (in CC(C)=O) 581 nm; (in CCCCCC) 520 nm; (in CCO) 635 nm; (in CCOC(C)=O) 562 nm. Further, the emission maximum runs as follows: (in CO) 643 nm; (in CS(C)=O) 601 nm; (in Cc1ccccc1) 554 nm; (in ClCCl) 597 nm.

`Cc1cc2c(cc1[N+](=O)[O-])NC(=O)CC(=O)N2`: the emission maximum (in CS(C)=O) is listed as 350 nm.

On to `CN(C)c1ccc2[c](c1)[Sn]([CH3])([CH3])[C]1=CC(=[N+](C)C)C=CC1=C2`, for which the emission maximum (in O) is 628 nm.

Take `CCCCCCCCN1C(=O)c2ccc3c4c(-c5ccc6c7ccccc7n(-c7ccccc7)c6c5)cc5c6c(ccc(c7c(-c8ccc9c%10ccccc%10n(-c%10ccccc%10)c9c8)cc(c2c37)C1=O)c64)C(=O)N(CCCCCCCC)C5=O`: the emission maximum (in ClC(Cl)Cl) is listed as 647 nm.
